Source: patent US20230158159A1, “CHIMERIC DEGRADERS OF CYCLIN-DEPENDENT KINASE 9 AND USES THEREOF” (Massachusetts Institute of Technology, priority 2020, published 2023)
Blank lines part the entries; values can stand above or below the compound they belong to.

Key:
CDK9 [1] = biological target: T1, CDK9 (Homo sapiens, UniProt P50750); experiment: CDK9 degradation assay, Western blot, Rh-30 cells; assay type: cell-based; parameters: endogenous in cells; host or cells: 22Rv1; conditions: for changes in CDK9 levels: Rh-30 cells, 10 nM, 100 nM, 500 nM, 1 μM, 10 μM, 6 h or 8 h
T1 sequence (P50750 whole entry): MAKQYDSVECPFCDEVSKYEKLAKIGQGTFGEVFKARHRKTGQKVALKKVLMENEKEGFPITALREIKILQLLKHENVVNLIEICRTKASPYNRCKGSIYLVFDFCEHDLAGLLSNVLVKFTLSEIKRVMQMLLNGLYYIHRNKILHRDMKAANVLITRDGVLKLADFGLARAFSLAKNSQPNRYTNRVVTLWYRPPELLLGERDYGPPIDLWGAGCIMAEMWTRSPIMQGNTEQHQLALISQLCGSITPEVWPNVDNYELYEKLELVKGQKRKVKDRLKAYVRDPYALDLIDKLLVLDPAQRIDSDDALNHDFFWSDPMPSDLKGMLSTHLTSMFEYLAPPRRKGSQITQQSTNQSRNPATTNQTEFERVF
T1 sequence (O60563 whole entry partner): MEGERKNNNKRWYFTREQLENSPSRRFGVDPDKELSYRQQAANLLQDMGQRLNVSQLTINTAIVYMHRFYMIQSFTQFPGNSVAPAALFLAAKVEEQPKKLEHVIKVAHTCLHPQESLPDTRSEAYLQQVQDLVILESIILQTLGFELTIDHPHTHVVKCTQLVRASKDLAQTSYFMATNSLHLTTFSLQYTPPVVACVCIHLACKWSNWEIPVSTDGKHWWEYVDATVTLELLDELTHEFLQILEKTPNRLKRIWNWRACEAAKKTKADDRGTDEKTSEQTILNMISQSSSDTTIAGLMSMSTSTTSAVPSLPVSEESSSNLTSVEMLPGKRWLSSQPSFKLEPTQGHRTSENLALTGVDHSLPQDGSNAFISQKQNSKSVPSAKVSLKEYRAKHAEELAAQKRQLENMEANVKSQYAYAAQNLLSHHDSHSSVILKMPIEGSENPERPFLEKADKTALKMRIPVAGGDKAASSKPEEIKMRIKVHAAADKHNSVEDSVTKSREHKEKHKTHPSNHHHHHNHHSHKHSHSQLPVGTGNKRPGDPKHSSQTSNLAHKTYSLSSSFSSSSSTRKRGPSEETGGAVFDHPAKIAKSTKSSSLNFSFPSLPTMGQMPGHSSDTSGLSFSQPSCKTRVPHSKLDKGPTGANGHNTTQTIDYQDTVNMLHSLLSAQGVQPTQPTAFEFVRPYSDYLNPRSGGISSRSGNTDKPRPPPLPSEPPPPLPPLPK
Method: (§1) FIGS. 8A-C show evaluation of KI-ARv3-D07 and -08 in MV-4-11 (FIG. 8A) and Rh-30 (FIG. 8C) cells as well as side by side comparison of both cell lines (FIG. 8B). […] FIG. 8B treatment time is 8 hr.
FIGS. 9A-D show evaluation of KI-ARv3-D11 and -D18 in 22Rv1 (FIG. 9A, 16 h treatment time), MOLT-4 (FIG. 9B, 7 h treatment time), and Rh-30 (FIGS. 9C and 9D, 16 h treatment time) cell lines.
(§2) The effect of KI-ARv3-D07 and -08 on impacting CDK9 levels in the additional cell lineages MV-4-11 (leukemia cell line) and the Rh-30 (rhabdomyosarcoma cell line) at 6 h and 8 h treatment times (FIG. 8) was also evaluated. […] In Rh-30 no changes in CDK9 levels were detected at any compound concentration (10 nM, 100 nM, 500 nM, 1 μM, 10 μM) at either 6 h or 8 h treatment time (FIGS. 8B and 8C).

Pol II = Pol II protein levels, Western blot, 22Rv1 cells; assay type: cell-based; conditions: FIG. 7 (24 hours, 10 nM-10 μM)
Method: (§3) Compounds were evaluated in ARv7 positive 22Rv1 cells in order to assess their potential to degrade CDK9 and its associated downstream phosphorylation targets Pol II as well as AR and related splice variants (FIGS. 6 and 7).

CDK9 [2] = biological target: T1, CDK9; experiment: CDK9 degradation assay, Western blot, MV-4-11 cells; assay type: cell-based; parameters: endogenous in cells
Method: as §1, §2

AR = AR and AR splice variant protein levels, Western blot, 22Rv1 cells; assay type: cell-based; conditions: FIG. 7 (24 hours, 10 nM-10 μM)
Method: as §3

CDK9 [3] = biological target: T1, CDK9; experiment: CDK9 degradation assay, Western blot, MOLT4 cells; assay type: cell-based; parameters: endogenous in cells; host or cells: MOLT4 (MOLT-4); conditions: for reduction of CDK9 protein levels: 1 μM, compared to DMSO and parent compound KI-ARv3; for concentration at which the concentration dependent decrease of CDK9 levels starts: dose range 10 nM-10 μM; for CDK9 protein levels: MOLT-4 leukemia cells, 8 h treatment time
Method: Efficiencies were measured by monitoring their impact on CDK9 itself as well as downstream targets of CDK9 phosphorylation such as AR and Pol II.

CDK9 [4] = biological target: T1, CDK9; experiment: CDK9 degradation assay, Western blot, 22Rv1 cells; assay type: cell-based; parameters: endogenous in cells; host or cells: 22Rv1; conditions: for reduction of CDK9 levels / degradation of CDK9: 10 nM-10 μM
Method: as §3

Cyclin T = Cyclin T protein levels, Western blot, MOLT-4 cells; assay type: cell-based, human; conditions: MOLT-4 leukemia cells, 10 μM, 8 h treatment time
Method: Compounds 4 and 5 (KI-ARv-03-D09 and -D10) incorporate such bi-aryl extensions and were therefore tested for their ability to degrade CDK9 and/or its associated cyclin T. In addition, the corresponding molecules KB-0742-D01 and -D02 which comprise the […] warhead and bi-aryl extensions were evaluated.

[5] = MOLT4 cells, 1 μM and 5 μM, 6 hours, compared to DMSO
[6] = MOLT4 cells, low dose 1 μM, 24 hours

Structure (SMILES): CCCc1cc(N[C@@H]2CC[C@@H](NC(=O)c3ccc(-c4ccc(CN[C@H](C(=O)N5C[C@H](O)C[C@H]5C(=O)NCc5ccc(-c6scnc6C)cc5)C(C)(C)C)cc4)cc3)C2)n2nccc2n1 [KI-ARv3-D18, (2S,4R)-1-((S)-3,3-dimethyl-2-(((4′-(((1R,3R)-3-((5-propylpyrazolo[1,5-a]pyrimidin-7-yl)amino)cyclopentyl)carbamoyl)-[1,1′-biphenyl]-4-yl)methyl)amino)butanoyl)-4-hydroxy-N-(4-(4-methylthiazol-5-yl)benzyl)pyrrolidine-2-carboxamide]
reduction of CDK9 levels (CDK9 [1]; 25 nM, FIG. 9D (Rh-30, 16 h treatment time)): approximately 80%

Structure (SMILES): CCCc1cc(N[C@@H]2CC[C@@H](NC(=O)c3ccc(-c4ccc(CNc5cccc6c5C(=O)N(C5CCC(=O)NC5=O)C6=O)cc4)cc3)C2)n2nccc2n1 (stereo partly drawn) [KI-ARv3-D08, 4′-(((2-(2,6-dioxopiperidin-3-yl)-1,3-dioxoisoindolin-4-yl)amino)methyl)-N-((1R,3R)-3-((5-propylpyrazolo[1,5-a]pyrimidin-7-yl)amino)cyclopentyl)-[1,1′-biphenyl]-4-carboxamide]
global Pol II protein levels (Pol II): no observed effect
concentration at which reduction of CDK9 levels starts (CDK9 [2]; 6 h and 8 h treatment time): 350 nM
reduction of CDK9 levels (CDK9 [2]; 6 h and 8 h treatment time): approximately 60%
rescue experiments using proteasome inhibitor MG132 (CDK9 [2]; FIG. 8A): reversible and proteasome dependent
global AR protein levels (AR): no observed effect
changes in CDK9 levels (CDK9 [1]): no changes
CDK9 degradation (CDK9 [3]; [5]): CDK9 degradation was observed
reduction of CDK9 protein levels (CDK9 [3]; MOLT4 cells, 6 hours): approximately 80%
concentration at which the concentration dependent decrease of CDK9 levels starts (CDK9 [3]; MOLT4 cells, 6 hours): 100 nM
CDK9 degradation (CDK9 [3]; MOLT4 cells, 24 hours, across the whole range 10 nM-10 μM): approx. 80%
CDK9 degradation (CDK9 [3]; [6]): reduced
concentration at which reduction in CDK9 protein levels starts (CDK9 [4]; 6 hours): 500 nM
reduction of CDK9 levels (CDK9 [4]; 6 hours): subtle reduction
concentration at which significant CDK9 degradation starts (CDK9 [4]; 24 hours): 100 nM
degradation of CDK9 (CDK9 [4]; 24 hours): significant CDK9 degradation

Structure (SMILES): CCCc1cc(N[C@@H]2CC[C@@H](NC(=O)CCCCCCCCCNc3cccc4c3C(=O)N(C3CCC(=O)NC3=O)C4=O)C2)n2nccc2n1 (stereo partly drawn) [KI-ARv3-D07, 10-((2-(2,6-Dioxopiperidin-3-yl)-1,3-dioxoisoindolin-4-yl)amino)-N-((1R,3R)-3-((5-propylpyrazolo[1,5-a]pyrimidin-7-yl)amino)cyclopentyl)decanamide]
changes in CDK9 levels (CDK9 [2]; 6 h and 8 h, FIGS. 8A and 8B): did not lead to significant changes
changes in CDK9 levels (CDK9 [1]): no changes
CDK9 degradation (CDK9 [3]; [5]): CDK9 degradation was observed
reduction of CDK9 protein levels (CDK9 [3]; MOLT4 cells, 6 hours): approximately 80%
concentration at which the concentration dependent decrease of CDK9 levels starts (CDK9 [3]; MOLT4 cells, 6 hours): 100 nM
degradation of CDK9 (CDK9 [3]; MOLT4 cells, 24 hours, 10 μM): not demonstrated
hook effect on CDK9 degradation (CDK9 [3]; MOLT4 cells, high dose 5 μM, 24 hours): hook effect
CDK9 degradation (CDK9 [3]; [6]): reduced
reduction of CDK9 levels (CDK9 [4]; 6 hours): no significant reduction
degradation of CDK9 (CDK9 [4]; 24 hours): not able to facilitate degradation of CDK9

The next lines start with results.

CDK9 protein levels (CDK9 [3]; 10 μM): reduction in protein levels
Structure (SMILES): CCC(CC)c1cc(N[C@H]2CC[C@H](NC(=O)c3ccc(-c4ccc(CN)cc4)cc3)C2)n2nccc2n1 [KB-0742-D02, 4′-(aminomethyl)-N-((1S,3S)-3-((5-(pentan-3-yl)pyrazolo[1,5-a]pyrimidin-7-yl)amino)cyclopentyl)-[1,1′-biphenyl]-4-carboxamide]
Cyclin T protein levels (Cyclin T): reduction in protein levels

CDK9 protein levels (CDK9 [3]; 10 μM): reduction in protein levels
Structure (SMILES): CCCc1cc(NC2CCC(NC(=O)c3ccc(-c4ccc(CN)cc4)cc3)C2)n2nccc2n1 (stereo not drawn) [KI-ARv3-D10, 4′-(aminomethyl)-N-(3-((5-propylpyrazolo[1,5-a]pyrimidin-7-yl)amino)cyclopentyl)-[1,1′-biphenyl]-4-carboxamide]
Cyclin T protein levels (Cyclin T): reduction in protein levels
